The values that follow come from PubChem BioAssay (NCI).

Where “and” joins values, the source holds several entries; their conditions need not be identical. Equal values may be shown once.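 Dose response: 5 concentrations. Exposure: 48 h. Format: 96-well plates. Endpoint: linear interpolation; highest concentration if not reached. At the GI50, growth is halved. TGI marks complete inhibition of growth.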

Common to all, as to test: NCI anticancer screen, dose series, 48 h
Assay [1] deals with CCRF-CEM leukemia.
Assay [2] relates to TK-10 renal.
For assay [3], the system named is COLO 205 colon.
The subject of assay [4] is HOP-92 NSCLC.
Assay [5] concerns OVCAR-5 ovarian.
For assay [6], the system named is SK-OV-3 ovarian.
For assay [7], the system named is UO-31 renal.
Assay [8] concerns LOX IMVI melanoma.

For the compound `C[C@]12CC[C@H]3[C@@H](CC=C4C[C@@H](O)CC[C@@]43C)[C@@H]1C/C(=C\c1cccc(OCCN3CCOCC3)c1)[C@@H]2O`, the GI50 in assay [1] is 41.1 µM; in assay [2], over 100 µM; in assay [3], 7.39 µM; in assay [4], over 100 µM; in assay [5], over 100 µM; in assay [6], over 100 µM. Moreover, the GI50 in assay [7] is 33.5 µM; in assay [8], over 100 µM. The TGI in assay [1] was over 100 µM; in assay [2], over 100 µM; in assay [3], 58.3 µM; in assay [4], over 100 µM; in assay [5], over 100 µM; in assay [6], over 100 µM. The TGI in assay [7] and in assay [8] was over 100 µM each time.

Take `S=C(Nc1ccccc1)c1ccccn1`: the GI50 in assay [1] was 3.97 µM; in assay [2] it was over 100 µM; in assay [3], 9.34 µM; in assay [4] it was 54.3 µM; in assay [5] it was over 100 µM; in assay [6] it was over 100 µM. In addition, the GI50 was 25.5 µM in assay [7] and 28.2 µM in assay [8]. For the same compound, the TGI in assay [1] was 40.4 µM; in assay [2], over 100 µM; in assay [3] it was over 100 µM; in assay [4] it was over 100 µM; in assay [5], over 100 µM; in assay [6], over 100 µM. Also, the TGI in assay [7] and in assay [8] was over 100 µM throughout.

Regarding `O=C(Oc1ccccc1)c1cc(O)c(O)c(O)c1`, the GI50 in assay [1] is 1.28 µM; in assay [2], 29.1 µM; in assay [3], 18.9 µM; in assay [4], 8.75 µM; in assay [5], 25.2 µM; in assay [6] it was 9.22 µM. In addition, the GI50 was 2.93 µM in assay [7] and 8.97 µM in assay [8]. Besides, the TGI in assay [1] was over 100 µM; in assay [2], over 100 µM; in assay [3] it was over 100 µM; in assay [4] it was 81.4 µM; in assay [5] it was over 100 µM; in assay [6], over 100 µM. The TGI in assay [7] and in assay [8] was over 100 µM each time.

Take `COc1ccc(/C=C/C(=O)c2ccc(Nc3ncnc4ccccc34)cc2)cc1OC`: the GI50 in assay [1] is 2.55 µM; in assay [2], 8.29 µM; in assay [3] it was 14.8 µM; in assay [4], 2.05 µM; in assay [5] it was 39.6 µM; in assay [6], 4.23 µM. The results for the GI50 in assay [7] and in assay [8] were 4.57 µM and 2.81 µM, respectively. Also, the TGI in assay [1] was 7.01 µM; in assay [2] it was 62.9 µM; in assay [3] it was over 100 µM; in assay [4] it was 52.7 µM; in assay [5] it was over 100 µM; in assay [6], 35.5 µM. The TGI in assay [7] stood at 68.3 µM; in assay [8], 10.4 µM.

Regarding `Cc1sc2ncnc(Sc3nc4ccccc4[nH]3)c2c1C`, the GI50 is 21.1 µM in assay [1]; 28.5 µM in assay [2]; 33.5 µM in assay [3]; 13.8 µM in assay [4]; 39.7 µM in assay [5]; 24.3 µM in assay [6]. The GI50 is 14.7 µM in assay [7] and 21.2 µM in assay [8]. Further, the TGI is over 100 µM in assay [1]; 62.4 µM in assay [2]; over 100 µM in assay [3]; 63.8 µM in assay [4]; over 100 µM in assay [5]; 65.6 µM in assay [6]. Moreover, the results for the TGI in assay [7] and in assay [8] were 96.7 µM and over 100 µM, respectively.

For the compound `Cc1c(C(=O)/C=C/c2ccc(O)cc2)nnn1-c1ccnc2c(C(F)(F)F)cccc12`, the GI50 is 4.54 µM in assay [1]; 9.28 µM in assay [2]; 5.68 µM in assay [3]; 34.5 µM in assay [4]; over 100 µM in assay [5]; 15.1 µM in assay [6]. The GI50 in assay [7] is 41.9 µM; in assay [8], 6.41 µM. The TGI was over 100 µM in assay [1]; 73.4 µM in assay [2]; 34.8 µM in assay [3]; over 100 µM in assay [4]; over 100 µM in assay [5]; 72.5 µM in assay [6]. Further, the TGI in assay [7] and in assay [8] was over 100 µM each time.

Consider `OCCNc1nc(NCCO)nc(Nc2ccc(C3=NN(c4cc(Cl)cc(Cl)c4)C(c4ccc(Cl)cc4)C3)cc2)n1` (stereo not drawn), for which the GI50 in assay [1] was 2.11 µM; in assay [2], 1.89 µM; in assay [3], 1.91 µM; in assay [4] it was 2.04 µM; in assay [5], 1.96 µM; in assay [6], 2.31 µM. Further, the GI50 in assay [7] was 1.63 µM; in assay [8], 1.65 µM. Besides, the TGI in assay [1] came to 5.46 µM; in assay [2] it was 3.72 µM; in assay [3], 3.84 µM; in assay [4] it was 4.42 µM; in assay [5], 4.43 µM; in assay [6], 5.15 µM. Besides, the figures for the TGI in assay [7] and in assay [8] were 3.16 µM and 3.01 µM, respectively.

Take `Cn1cnc2c(F)c(Nc3ccc(Br)cc3Cl)c(C(=O)NOCCO)cc21`: the GI50 in assay [1] was over 94.6 µM; in assay [2], 0.183 µM and 1.62 µM; in assay [3], 0.0211 µM and < 0.0137 µM; in assay [4] it was 0.197 µM and 0.235 µM; in assay [6] it was > 10 µM and 63.4 µM; in assay [7], 1.45 µM and 3.38 µM. Moreover, the GI50 in assay [8] is 1.26 µM and 1.45 µM. Moreover, the TGI in assay [1] is over 100 µM; in assay [2] it was over 100 µM; in assay [3], over 15.1 µM; in assay [4], 6.14 µM and 8.67 µM; in assay [5], over 100 µM; in assay [6], over 100 µM. Also, the TGI in assay [7] was over 66 µM; in assay [8], over 80.9 µM.

For the compound `CN(C)c1cccc2[nH]c(-c3[nH]ncc3Nc3ccnc(N)n3)nc12`, the GI50 in assay [1] is under 0.0118 µM; in assay [2], 0.0399 µM; in assay [3], under 0.01 µM; in assay [4], 0.0152 µM; in assay [5], 0.023 µM; in assay [6] it was 0.073 µM. Moreover, the values for the GI50 in assay [7] and in assay [8] were under 0.0142 µM and under 0.01 µM, respectively. In addition, the TGI in assay [1] came to 4.48 µM; in assay [2], 1.01 µM; in assay [3], 0.0837 µM; in assay [4], 0.0603 µM; in assay [5] it was 1.9 µM; in assay [6], 2.38 µM. The TGI is 0.276 µM in assay [7] and 0.14 µM in assay [8].
